Laboratory results taken from US12280138B2, “Dedifferentiated cell extract of Bletilla and method for whitening, anti-oxidation and anti-wrinkling applying the same, and cosmetic comprising the same” (CHLITINA INTELLIGENCE LIMITED, priority 2021, dated 2025).

Columns and labels:
melanosis = details: 1% kojic acid applied to male and female subjects; cited from earlier work
zebrafish embryos = experiment: Whitening efficacy in zebrafish experiment (melanin plaques); assay type: in vivo; details: 10 mM (about 1421 μg/ml)
Method: The wild-type zebrafish were stimulated to spawn, and the eggs spawned within one hour were collected. Upon 9 hours after fertilization, the embryos were screened by microscope to confirm the developmental state after fertilization. Each group had 12 fish embryos. The E3 culture medium, which was the zebrafish embryo culture medium, served as the control group. The positive control group was added with kojic acid (Kojic acid). Each experimental group was added with Example 1, Comparative example 1 and Comparative example 2, respectively. As zebrafish embryos produced melanin within 24 hours after fertilization, the treatment finished before the production of melanin, and the melanin production state in the hatched fish was observed upon 72 hours after fertilization. First, the fish was anesthetized and placed on a flat surface. The photo was taken from a top view, and the melanin plaques were analyze by the software of ImageJ. The intensity of the melanin plaque in the control group served as the standard, that is, the melanin amount thereof was 100%. The relative melanin amounts of the rest of the groups were calculated.

For `O=c1cc(CO)occ1O` [kojic acid], the melanosis (melanosis) is listed as “significantly inhibited” and the “Inhibition rate of melanin production” value (zebrafish embryos) is listed as “about 55%”.
